Results published in PubChem BioAssay (NCI).
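Exposure lasted 48 hours, with cells grown in 96-well plates and compounds tested at five concentrations. At the TGI there is no net growth.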

What was measured:
Assay in all cases: growth of human tumour cells (NCI), 48 h
HCT-116 colon = system: HCT-116 colon
HL-60(TB) leukemia = system: HL-60(TB) leukemia
M14 melanoma = system: M14 melanoma
SK-MEL-5 melanoma = system: SK-MEL-5 melanoma
OVCAR-8 ovarian = system: OVCAR-8 ovarian
SK-OV-3 ovarian = system: SK-OV-3 ovarian
MDA-MB-435 = system: MDA-MB-435
A549 NSCLC = system: A549 NSCLC
OVCAR-4 ovarian = system: OVCAR-4 ovarian
MDA-MB-231 breast = system: MDA-MB-231 breast
HS 578T breast = system: HS 578T breast
HOP-92 NSCLC = system: HOP-92 NSCLC
NCI-H460 lung = system: NCI-H460 lung
UACC-62 melanoma = system: UACC-62 melanoma
SF-295 CNS = system: SF-295 CNS
BT-549 breast = system: BT-549 breast
NCI-H23 lung = system: NCI-H23 lung
SN12C renal = system: SN12C renal
RXF 393 renal = system: RXF 393 renal
SK-MEL-28 melanoma = system: SK-MEL-28 melanoma
HT29 colon = system: HT29 colon
MALME-3M melanoma = system: MALME-3M melanoma
SK-MEL-2 melanoma = system: SK-MEL-2 melanoma
SNB-19 CNS = system: SNB-19 CNS
UO-31 renal = system: UO-31 renal
NCI/ADR-RES ovarian = system: NCI/ADR-RES ovarian
PC-3 prostate = system: PC-3 prostate
KM12 colon = system: KM12 colon
LOX IMVI melanoma = system: LOX IMVI melanoma
NCI-H226 lung = system: NCI-H226 lung
T-47D breast = system: T-47D breast
K-562 leukemia = system: K-562 leukemia
SW-620 colon = system: SW-620 colon
U251 CNS = system: U251 CNS
CAKI-1 renal = system: CAKI-1 renal
SNB-75 CNS = system: SNB-75 CNS
IGROV1 ovarian = system: IGROV1 ovarian
HOP-62 NSCLC = system: HOP-62 NSCLC
DU-145 prostate = system: DU-145 prostate
MDA-N = system: MDA-N
A498 renal = system: A498 renal
MOLT-4 leukemia = system: MOLT-4 leukemia
NCI-H522 lung = system: NCI-H522 lung
COLO 205 colon = system: COLO 205 colon
SR leukemia = system: SR leukemia
RPMI-8226 leukemia = system: RPMI-8226 leukemia
TK-10 renal = system: TK-10 renal
MCF7 breast = system: MCF7 breast
SF-268 CNS = system: SF-268 CNS
OVCAR-5 ovarian = system: OVCAR-5 ovarian
786-0 renal = system: 786-0 renal
OVCAR-3 ovarian = system: OVCAR-3 ovarian
ACHN renal = system: ACHN renal
SF-539 CNS = system: SF-539 CNS
HCT-15 colon = system: HCT-15 colon
EKVX NSCLC = system: EKVX NSCLC
CCRF-CEM leukemia = system: CCRF-CEM leukemia
M19-MEL melanoma = system: M19-MEL melanoma
LXFL 529 NSCLC = system: LXFL 529 NSCLC
DMS 114 small cell lung = system: DMS 114 small cell lung
UACC-257 melanoma = system: UACC-257 melanoma
SNB-78 CNS = system: SNB-78 CNS
KM20L2 colon = system: KM20L2 colon
HOP-18 NSCLC = system: HOP-18 NSCLC
DMS 273 small cell lung = system: DMS 273 small cell lung
DLD-1 colon = system: DLD-1 colon
HCC-2998 colon = system: HCC-2998 colon

## CC(CCCC1SCC2NC(=O)NC21)C(=O)O (configuration not stated)
HCT-116 colon
  TGI: > 100 µM
HL-60(TB) leukemia
  TGI: > 100 µM
M14 melanoma
  TGI: > 100 µM
SK-MEL-5 melanoma
  TGI: > 100 µM
OVCAR-8 ovarian
  TGI: > 100 µM
SK-OV-3 ovarian
  TGI: > 100 µM
MDA-MB-435
  TGI: > 100 µM
A549 NSCLC
  TGI: > 100 µM
OVCAR-4 ovarian
  TGI: > 100 µM
MDA-MB-231 breast
  TGI: > 100 µM
HS 578T breast
  TGI: > 100 µM
HOP-92 NSCLC
  TGI: > 100 µM
NCI-H460 lung
  TGI: > 100 µM
UACC-62 melanoma
  TGI: > 100 µM
SF-295 CNS
  TGI: > 100 µM
BT-549 breast
  TGI: > 100 µM
NCI-H23 lung
  TGI: > 100 µM
SN12C renal
  TGI: > 100 µM
RXF 393 renal
  TGI: > 100 µM
SK-MEL-28 melanoma
  TGI: > 100 µM
HT29 colon
  TGI: > 100 µM
MALME-3M melanoma
  TGI: > 100 µM
SK-MEL-2 melanoma
  TGI: > 100 µM
SNB-19 CNS
  TGI: > 100 µM
UO-31 renal
  TGI: > 100 µM
NCI/ADR-RES ovarian
  TGI: > 100 µM
PC-3 prostate
  TGI: > 100 µM
KM12 colon
  TGI: > 100 µM
LOX IMVI melanoma
  TGI: > 100 µM
NCI-H226 lung
  TGI: > 100 µM
T-47D breast
  TGI: > 100 µM
K-562 leukemia
  TGI: > 100 µM
SW-620 colon
  TGI: > 100 µM
U251 CNS
  TGI: > 100 µM
CAKI-1 renal
  TGI: > 100 µM
SNB-75 CNS
  TGI: > 100 µM
IGROV1 ovarian
  TGI: > 100 µM
HOP-62 NSCLC
  TGI: > 100 µM
DU-145 prostate
  TGI: > 100 µM
MDA-N
  TGI: > 100 µM
A498 renal
  TGI: > 100 µM
MOLT-4 leukemia
  TGI: > 100 µM
NCI-H522 lung
  TGI: > 100 µM
COLO 205 colon
  TGI: > 100 µM
SR leukemia
  TGI: > 100 µM
RPMI-8226 leukemia
  TGI: > 100 µM
TK-10 renal
  TGI: > 100 µM
MCF7 breast
  TGI: > 100 µM
SF-268 CNS
  TGI: > 100 µM
OVCAR-5 ovarian
  TGI: > 100 µM
786-0 renal
  TGI: > 100 µM
OVCAR-3 ovarian
  TGI: > 100 µM
ACHN renal
  TGI: > 100 µM
SF-539 CNS
  TGI: > 100 µM
HCT-15 colon
  TGI: > 100 µM
EKVX NSCLC
  TGI: > 100 µM

## CCO[C@@H]1OC(=O)[C@@](C)(C(C)=O)[C@@H]1C
HL-60(TB) leukemia
  TGI: 78.6 µM
M14 melanoma
  TGI: 70.4 µM
SK-OV-3 ovarian
  TGI: > 100 µM
OVCAR-4 ovarian
  TGI: > 100 µM
HOP-92 NSCLC
  TGI: 94.9 µM
NCI-H460 lung
  TGI: > 100 µM
UACC-62 melanoma
  TGI: 53.3 µM
SF-295 CNS
  TGI: 66 µM
NCI-H23 lung
  TGI: 28.7 µM
CCRF-CEM leukemia
  TGI: 49.5 µM
RXF 393 renal
  TGI: 70.2 µM
SK-MEL-28 melanoma
  TGI: 29.9 µM
HT29 colon
  TGI: 34.6 µM
MALME-3M melanoma
  TGI: 77.5 µM
SK-MEL-2 melanoma
  TGI: 52 µM
SNB-19 CNS
  TGI: 68.3 µM
UO-31 renal
  TGI: > 100 µM
KM12 colon
  TGI: > 100 µM
M19-MEL melanoma
  TGI: 40.9 µM
LXFL 529 NSCLC
  TGI: 47.6 µM
K-562 leukemia
  TGI: > 100 µM
U251 CNS
  TGI: 56.7 µM
SNB-75 CNS
  TGI: 25.7 µM
DMS 114 small cell lung
  TGI: 68.9 µM
IGROV1 ovarian
  TGI: > 100 µM
HOP-62 NSCLC
  TGI: 56.6 µM
UACC-257 melanoma
  TGI: 78.9 µM
SNB-78 CNS
  TGI: 84.9 µM
A498 renal
  TGI: > 100 µM
MOLT-4 leukemia
  TGI: 61.1 µM
NCI-H522 lung
  TGI: > 100 µM
COLO 205 colon
  TGI: > 100 µM
SR leukemia
  TGI: > 100 µM
RPMI-8226 leukemia
  TGI: 48.6 µM
SF-268 CNS
  TGI: 44.1 µM
OVCAR-5 ovarian
  TGI: > 100 µM
OVCAR-3 ovarian
  TGI: 31.4 µM
ACHN renal
  TGI: > 100 µM
KM20L2 colon
  TGI: > 100 µM

## COc1ccc(C[C@H](N)C(=O)N2C[C@@H](CO)C[C@@H](n3cnc4c(N(C)C)ncnc43)C2)cc1
HCT-116 colon
  TGI: > 100 µM
HL-60(TB) leukemia
  TGI: > 100 µM
M14 melanoma
  TGI: > 100 µM
SK-MEL-5 melanoma
  TGI: > 100 µM
OVCAR-8 ovarian
  TGI: > 100 µM
SK-OV-3 ovarian
  TGI: > 100 µM
A549 NSCLC
  TGI: > 100 µM
HOP-92 NSCLC
  TGI: > 100 µM
NCI-H460 lung
  TGI: > 100 µM
UACC-62 melanoma
  TGI: > 100 µM
SF-295 CNS
  TGI: > 100 µM
NCI-H23 lung
  TGI: > 100 µM
CCRF-CEM leukemia
  TGI: > 100 µM
HOP-18 NSCLC
  TGI: > 100 µM
SK-MEL-28 melanoma
  TGI: > 100 µM
HT29 colon
  TGI: > 100 µM
MALME-3M melanoma
  TGI: > 100 µM
SK-MEL-2 melanoma
  TGI: > 100 µM
SNB-19 CNS
  TGI: > 100 µM
UO-31 renal
  TGI: > 100 µM
KM12 colon
  TGI: > 100 µM
LOX IMVI melanoma
  TGI: > 100 µM
M19-MEL melanoma
  TGI: > 100 µM
LXFL 529 NSCLC
  TGI: > 100 µM
DMS 273 small cell lung
  TGI: > 100 µM
K-562 leukemia
  TGI: > 100 µM
SW-620 colon
  TGI: > 100 µM
U251 CNS
  TGI: > 100 µM
CAKI-1 renal
  TGI: > 100 µM
DMS 114 small cell lung
  TGI: > 100 µM
IGROV1 ovarian
  TGI: > 100 µM
HOP-62 NSCLC
  TGI: > 100 µM
UACC-257 melanoma
  TGI: > 100 µM
DLD-1 colon
  TGI: > 100 µM
SNB-78 CNS
  TGI: > 100 µM
MOLT-4 leukemia
  TGI: > 100 µM
NCI-H522 lung
  TGI: > 100 µM
SR leukemia
  TGI: > 100 µM
RPMI-8226 leukemia
  TGI: > 100 µM
TK-10 renal
  TGI: > 100 µM
SF-268 CNS
  TGI: > 100 µM
OVCAR-5 ovarian
  TGI: > 100 µM
786-0 renal
  TGI: > 100 µM
OVCAR-3 ovarian
  TGI: > 100 µM
KM20L2 colon
  TGI: > 100 µM
SF-539 CNS
  TGI: > 100 µM
HCT-15 colon
  TGI: > 100 µM
EKVX NSCLC
  TGI: > 100 µM

## CC(=O)[O-].[O-]c1c(Cl)cc(Cl)cc1/C=N/Nc1ccccn1.[Zn+2]
HCT-116 colon
  TGI: > 100 µM
HL-60(TB) leukemia
  TGI: 0.736 µM
OVCAR-8 ovarian
  TGI: 0.837 µM
HCC-2998 colon
  TGI: > 100 µM
A549 NSCLC
  TGI: > 100 µM
HOP-92 NSCLC
  TGI: 0.803 µM
NCI-H460 lung
  TGI: > 100 µM
UACC-62 melanoma
  TGI: 2.43 µM
SF-295 CNS
  TGI: 5.41 µM
SN12C renal
  TGI: > 100 µM
SK-MEL-28 melanoma
  TGI: > 100 µM
HT29 colon
  TGI: > 100 µM
MALME-3M melanoma
  TGI: > 100 µM
SK-MEL-2 melanoma
  TGI: 1.98 µM
SNB-19 CNS
  TGI: > 100 µM
UO-31 renal
  TGI: > 100 µM
KM12 colon
  TGI: > 100 µM
LOX IMVI melanoma
  TGI: > 100 µM
NCI-H226 lung
  TGI: > 100 µM
M19-MEL melanoma
  TGI: > 100 µM
LXFL 529 NSCLC
  TGI: > 100 µM
K-562 leukemia
  TGI: > 100 µM
U251 CNS
  TGI: > 100 µM
SNB-75 CNS
  TGI: > 100 µM
DMS 114 small cell lung
  TGI: 0.605 µM
IGROV1 ovarian
  TGI: > 100 µM
UACC-257 melanoma
  TGI: > 100 µM
DLD-1 colon
  TGI: > 100 µM
A498 renal
  TGI: > 100 µM
MOLT-4 leukemia
  TGI: 0.581 µM
NCI-H522 lung
  TGI: 20.6 µM
COLO 205 colon
  TGI: > 100 µM
SR leukemia
  TGI: 0.675 µM
OVCAR-5 ovarian
  TGI: 6.43 µM
786-0 renal
  TGI: > 100 µM
OVCAR-3 ovarian
  TGI: 0.707 µM
KM20L2 colon
  TGI: > 100 µM
HCT-15 colon
  TGI: > 100 µM
EKVX NSCLC
  TGI: 9.01 µM
